Results: patent US6841565B1, “Treatment of patients with chronic lymphocytic leukemia” (The Ohio State University, priority 2002, dated 2005)
Where two headings read alike, the source gives them in different places.

How the values were obtained:
B-CLL cells [1] = experiment: Annexin V/propidium iodide flow cytometric apoptosis assay; assay type: cell-based, human
Protocol: FIG. 3. […] B-CLL patient cells were incubated with 0, 0.3, or 3.0 μM MS-275 for 24 hours. Apoptosis was assessed by annexin V/propidium iodide flow cytometry. To determine whether MS-275-treated B-CLL cells were undergoing apoptosis, an annexin V/propidium iodide flow cytometric assay was used to analyze the B-CLL cells, isolated as described in Example 1, from four different patients. Staining of cells for annexin V is an early indicator of initiation of apoptosis. Staining of cells with propidium iodide is an indicator that cells are no longer viable and, therefore, that apoptosis has actually occurred (i.e., integrity of cell membrane has been breached). To perform the assay, cells were exposed to various concentrations of MS-275 for 4 hours. Then, the cells were washed, resuspended in complete medium and incubated for 24 or 48 hours in absence of MS-275. At these times, cells were washed with PBS and resuspended in binding buffer containing annexin V-FITC and propidium iodide (BD Pharmingen, San Diego, Calif.). After 15 minutes of incubation in the dark at room temperature, apoptosis was assessed by flow cytometry on a Coulter EPICS-XL flow cytometer. […] The results were similar in the other three patients.

histone deacetylases = experiment: Histone acetylation in B-CLL cells by immunoblotting; assay type: cell-based, human
Protocol: FIG. 2. MS-275 induced acetylation of histone proteins. PBMCs from two different B-CLL patients (Patient No. 1 and 2) were collected and incubated with 0, 0.3, or 3.0 μM MS-275 for 24 hours. Nuclear extracts were prepared from the cells and were separated by SDS-polyacrylamide gel electrophoresis before immunoblotting with antibodies immunospecific for acetylated forms of H3 or H4 histones. Coomassie blue staining was used to control for protein amount loaded onto the SDS polyacrylamide gels.
Antibodies immunospecific for specific acetylated lysine residues at the N terminus of histone H4 (i.e., K5, K8, K12 and K16) were also used. For immunoblotting, whole cell lysates were prepared from the cells using standard procedures. Protein samples were separated along with molecular weight markers (BioRad) on 10 to 14% SDS-polyacrylamide gels. Proteins in the gels were transferred using a semidry apparatus (BioRad) onto nitrocellulose membranes (Schleicher and Schuell, Keene, N.H.). Gel loading equivalence was confirmed by Ponceau S stain (Sigma) of membranes and by probing with a monoclonal antibody for GAPDH. Blots were developed with chemiluminescent substrate (Pierce Super-Signal, Pierce Biotechnology, Rockford, Ill.) and autoradiography was performed with X-OMAT film (Kodak, Rochester, N.Y.). Protein bands were digitally quantified using a ChemiDoc instrument (BioRad).

in vitro = assay type: cell-based; conditions: human
Excerpt: Peripheral blood mononuclear cells (PBMCs) were obtained from the B-CLL patients and were also obtained from healthy volunteers as controls. Peripheral blood was collected from the patients or volunteers using standard techniques (see for example, S. Bennett and S. N. Breit, 1994, Variables in the isolation and culture of human monocytes that are of particular relevance to studies of HIV, J. Leukoc. Biol. 56:236-40). PMBCs were isolated from the blood using standard density gradient centrifugation using Ficoll-Paque Plus (Pharmacia Biotech, Picsataway N.J.). After isolation, the PBMCs were washed in phosphate-buffered saline (PBS).
(§1) In order to accurately represent the in vivo situation where drug is eliminated from the bloodstream, 1×10^6 PBMCs from B-CLL patients or healthy volunteers, isolated as described in Example 1, were incubated in various concentrations of MS-275 in RPMI 1640 with 10% heat-inactivated fetal bovine serum for 4, 24 or 96 hours at 37° C. in 96-well plates. […] Viability of the cells was then analyzed using the MTT assay. […] To use the MTT assay, MTT reagent was added and the cells were incubated for an additional 24 hours before washing and analysis of purple formazan formation by spectrophotometry in a Labsystems 96-well plate reader. Data were plotted and values were calculated using GraphPad software (San Diego, Calif.).

caspase 3 = experiment: Caspase activation colorimetric assay, caspase 3; assay type: cell-based, human; conditions: B-CLL cells, 0.3 or 3.0 μM MS-275, 24 hours
Protocol: FIG. 4. […] B-CLL patient cells were incubated with 0.3 or 3.0 μM MS-275 for 24 hours. At these time points, lysates were prepared from the cells and caspase 3 activity in the lysates was measured using a colorimetric assay. To determine the role and identity of caspases involved in MS-275-induced apoptosis, B-CLL cells, isolated as described in Example 1, were treated with MS-275 and analyzed for caspase activation by colorimetric assay. […] Cleavage of the protein BID, a known substrate of caspase 8, was also shown.

human tumor cell lines = conditions: A. Saito, et al., 1999; cited from earlier work
B-CLL cells [2] = experiment: cells; assay type: cell-based; conditions: Homo sapiens, read-out: LC50
Protocol: FIG. 1. LC50 determination of MS-275 in primary B-CLL cells. Peripheral blood mononuclear cells (PBMCs) from thirteen individual B-CLL patients were isolated and incubated with varying concentrations of MS-275 from 0.01 to 100 uM. A. Cells were incubated in drug for 4 hours and were then washed and re-incubated in fresh media for a total of 96 hours. B. Cells were incubated in drug for 96 hours continuously. Viability was determined by an MTT assay to detect metabolic activity. Each patient sample at each concentration was run in quadruplicate and was normalized to cells from the same patient incubated for the same time period in media alone. Error bars represent 95% confidence intervals. […]
as §1, with “Data were plotted and values were calculated using GraphPad software (San Diego, Calif.).” left out

caspases 8 and 9 = experiment: Caspase activation, caspases 8 and 9; assay type: cell-based, human; conditions: B-CLL cells treated with MS-275, other studies
Protocol: To determine the role and identity of caspases involved in MS-275-induced apoptosis, B-CLL cells, isolated as described in Example 1, were treated with MS-275 and analyzed for caspase activation by colorimetric assay. […] Cleavage of the protein BID, a known substrate of caspase 8, was also shown.

1D10 antigen = 1D10 antigen levels on B-CLL cells by immunofluorescence flow cytometry; assay type: cell-based, human; conditions: 3.0 μM MS-275, 24 hours
Protocol: Washed B-CLL cells, isolated as described in Example 1, from four different patients with B-CLL, were incubated at a concentration of 10^7 cells per ml in the presence or absence of 3.0 μM MS-275 for 24 hours, before being immunofluorescently stained with either non-specific antibody (unable to specifically bind to the cells) or antibody immunospecific for 1D10 antigen. All cells were also stained with an antibody immunospecific for CD19 (recognizing B cells). The cells were analyzed by flow cytometry. The mean fluorescence intensity due to 1D10 antigen staining of CD19-positive cells was recorded.

[3] = test system: cellular histone deacetylase activity; conditions: A. Saito, et al., 1999; cited from earlier work
[4] = Patient No. 1, 0.3 μM MS-275, 24 hours
[5] = Patient No. 1, 3.0 μM MS-275, 24 hours
[6] = Patient No. 2, 0.3 μM MS-275, 24 hours
[7] = Patient No. 2, 3.0 μM MS-275, 24 hours
[8] = Patient No. 1, CD19-positive B-CLL cells
[9] = Patient No. 2, CD19-positive B-CLL cells
[10] = Patient No. 3, CD19-positive B-CLL cells
[11] = Patient No. 4, CD19-positive B-CLL cells

SMILES: Nc1ccccc1NC(=O)c1ccc(CNC(=O)OCc2cccnc2)cc1 [MS-275, N-(2-aminophenyl)-4-[N-(pyridin-3-yl-methoxycarbonyl)aminomethyl]benzamide]
- apoptosis (annexin V/propidium iodide flow cytometry) (B-CLL cells [1]; 0.3 μM of MS-275, after 48 hours): apoptosis was detected after 48 hours
- apoptosis (annexin V/propidium iodide flow cytometry) (B-CLL cells [1]; 3.0 μM of MS-275, within 24 hours, one representative patient): apoptosis was detected within 24 hours
- effect of Bcl-2 expression on MS-275-induced apoptosis (B-CLL cells [1]; expression of the anti-apoptotic protein Bcl-2, other studies): inhibited by expression of the anti-apoptotic protein Bcl-2
- Fold Increase in Histone Acetylation (Relative to Untreated), H3 Total (histone deacetylases; [4]): 1.3 fold
- Fold Increase in Histone Acetylation (Relative to Untreated), H4 K5 (histone deacetylases; [4]): 2.7 fold
- Fold Increase in Histone Acetylation (Relative to Untreated), H4 K8 (histone deacetylases; [4]): 1.6 fold
- Fold Increase in Histone Acetylation (Relative to Untreated), H4 K12 (histone deacetylases; [4]): 4.4 fold
- Fold Increase in Histone Acetylation (Relative to Untreated), H4 K16 (histone deacetylases; [4]): 3.7 fold
- Fold Increase in Histone Acetylation (Relative to Untreated), H4 Total (histone deacetylases; [4]): 2.4 fold
- Fold Increase in Histone Acetylation (Relative to Untreated), H3 Total (histone deacetylases; [5]): 2.3 fold
- Fold Increase in Histone Acetylation (Relative to Untreated), H4 K5 (histone deacetylases; [5]): 8.9 fold
- Fold Increase in Histone Acetylation (Relative to Untreated), H4 K8 (histone deacetylases; [5]): 1.9 fold
- Fold Increase in Histone Acetylation (Relative to Untreated), H4 K12 (histone deacetylases; [5]): 15.8 fold
- Fold Increase in Histone Acetylation (Relative to Untreated), H4 K16 (histone deacetylases; [5]): 9.1 fold
- Fold Increase in Histone Acetylation (Relative to Untreated), H4 Total (histone deacetylases; [5]): 3.9 fold
- Fold Increase in Histone Acetylation (Relative to Untreated), H3 Total (histone deacetylases; [6]): 1.5 fold
- Fold Increase in Histone Acetylation (Relative to Untreated), H4 K5 (histone deacetylases; [6]): 2.6 fold
- Fold Increase in Histone Acetylation (Relative to Untreated), H4 K8 (histone deacetylases; [6]): 4.4 fold
- Fold Increase in Histone Acetylation (Relative to Untreated), H4 K12 (histone deacetylases; [6]): 5.1 fold
- Fold Increase in Histone Acetylation (Relative to Untreated), H4 K16 (histone deacetylases; [6]): 3.1 fold
- Fold Increase in Histone Acetylation (Relative to Untreated), H4 Total (histone deacetylases; [6]): 3.8 fold
- Fold Increase in Histone Acetylation (Relative to Untreated), H3 Total (histone deacetylases; [7]): 3.1 fold
- Fold Increase in Histone Acetylation (Relative to Untreated), H4 K5 (histone deacetylases; [7]): 4.5 fold
- Fold Increase in Histone Acetylation (Relative to Untreated), H4 K8 (histone deacetylases; [7]): 4.8 fold
- Fold Increase in Histone Acetylation (Relative to Untreated), H4 K12 (histone deacetylases; [7]): 10.3 fold
- Fold Increase in Histone Acetylation (Relative to Untreated), H4 K16 (histone deacetylases; [7]): 4.7 fold
- Fold Increase in Histone Acetylation (Relative to Untreated), H4 Total (histone deacetylases; [7]): 5.2 fold
- CC50 at 4 h (in vitro): ≥ 21100 nM
- CC50 at 96 h (in vitro): ≥ 4750 nM
- caspase 3 activation (caspase 3): induced activation of caspase 3
- growth in a variety of human tumor cell lines (human tumor cell lines): block growth
- CC50 (B-CLL cells [2]; 96 h): 509 nM
- CC50 (B-CLL cells [2]): 1210 nM
- caspases 8 and 9 activation (caspases 8 and 9): activated to a lesser extent than caspase 3
- mean 1D10 fluorescence normalized to the staining control (1D10 antigen; [8]): 88
- mean 1D10 fluorescence of the cells (1D10 antigen; [8]): 104.11
- mean 1D10 fluorescence normalized to the staining control (1D10 antigen; [9]): 393
- mean 1D10 fluorescence of the cells (1D10 antigen; [9]): 463.23
- mean 1D10 fluorescence normalized to the staining control (1D10 antigen; [10]): 3252
- mean 1D10 fluorescence of the cells (1D10 antigen; [10]): 6438.03
- mean 1D10 fluorescence normalized to the staining control (1D10 antigen; [11]): 4158
- mean 1D10 fluorescence of the cells (1D10 antigen; [11]): 5446.76
- inhibition of cellular histone deacetylase activity [3]: inhibit cellular histone deacetylase activity
